What is called IC50 is the midpoint of a concentration-inhibition curve.

The results in this text go back to patent publication US11208414B2, “Ectonucleotidase inhibitors and methods of use thereof” (Calithera Biosciences, Inc., priority 2016, dated 2021).

In the test the target is recombinant CD73 (Homo sapiens (Human), UniProt P21589). In words: Inhibition of soluble recombinant CD73 enzyme activity (Malachite Green). The test is classed as biochemical. Particulars: recombinant CD73 0.5 nM, AMP 50 μM, 30 minutes at room temperature. The procedure:
The concentration of inorganic phosphate was determined using a phosphate standard curve.

Sequence of recombinant CD73 (P21589 27-547): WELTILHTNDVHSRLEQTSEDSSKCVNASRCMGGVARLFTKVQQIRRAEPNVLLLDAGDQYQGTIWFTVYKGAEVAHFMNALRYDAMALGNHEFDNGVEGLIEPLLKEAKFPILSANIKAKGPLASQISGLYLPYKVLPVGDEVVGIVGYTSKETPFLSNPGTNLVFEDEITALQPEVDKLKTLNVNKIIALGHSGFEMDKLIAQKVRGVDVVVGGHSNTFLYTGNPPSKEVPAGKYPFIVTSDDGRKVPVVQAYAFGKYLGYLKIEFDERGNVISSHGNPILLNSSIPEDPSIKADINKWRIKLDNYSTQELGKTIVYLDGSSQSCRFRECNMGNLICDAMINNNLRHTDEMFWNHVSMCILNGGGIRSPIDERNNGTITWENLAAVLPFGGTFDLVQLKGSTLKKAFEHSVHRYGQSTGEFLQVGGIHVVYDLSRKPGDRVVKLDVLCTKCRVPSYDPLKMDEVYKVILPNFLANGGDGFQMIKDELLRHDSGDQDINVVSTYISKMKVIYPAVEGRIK

In the case of `Nc1ncnc2c1ncn2[C@@H]1O[C@H](COC(C(=O)O)C(=O)O)[C@@H](O)C1F` (stereo in doubt) [compound 9, 2-(((2R,3R,4R,5R)-5-(6-amino-9H-purin-9-yl)-4-fluoro-3-hydroxytetrahydrofuran-2-yl)-methoxy)malonic acid], the IC50 is more than 50 µM.
